Assay results as given in patent publication US7410975B2, “Small molecule toll-like receptor (TLR) antagonists” (Coley Pharmaceutical Group, Inc., priority 2003, dated 2008).
Structures can show the parent of a compound that is named as a salt.

Target: T1, human TLR7 (hTLR7) (Homo sapiens, UniProt Q9NYK1)
T1 construct: expressed in transfected cells
T1 sequence (Q9NYK1 27-1049): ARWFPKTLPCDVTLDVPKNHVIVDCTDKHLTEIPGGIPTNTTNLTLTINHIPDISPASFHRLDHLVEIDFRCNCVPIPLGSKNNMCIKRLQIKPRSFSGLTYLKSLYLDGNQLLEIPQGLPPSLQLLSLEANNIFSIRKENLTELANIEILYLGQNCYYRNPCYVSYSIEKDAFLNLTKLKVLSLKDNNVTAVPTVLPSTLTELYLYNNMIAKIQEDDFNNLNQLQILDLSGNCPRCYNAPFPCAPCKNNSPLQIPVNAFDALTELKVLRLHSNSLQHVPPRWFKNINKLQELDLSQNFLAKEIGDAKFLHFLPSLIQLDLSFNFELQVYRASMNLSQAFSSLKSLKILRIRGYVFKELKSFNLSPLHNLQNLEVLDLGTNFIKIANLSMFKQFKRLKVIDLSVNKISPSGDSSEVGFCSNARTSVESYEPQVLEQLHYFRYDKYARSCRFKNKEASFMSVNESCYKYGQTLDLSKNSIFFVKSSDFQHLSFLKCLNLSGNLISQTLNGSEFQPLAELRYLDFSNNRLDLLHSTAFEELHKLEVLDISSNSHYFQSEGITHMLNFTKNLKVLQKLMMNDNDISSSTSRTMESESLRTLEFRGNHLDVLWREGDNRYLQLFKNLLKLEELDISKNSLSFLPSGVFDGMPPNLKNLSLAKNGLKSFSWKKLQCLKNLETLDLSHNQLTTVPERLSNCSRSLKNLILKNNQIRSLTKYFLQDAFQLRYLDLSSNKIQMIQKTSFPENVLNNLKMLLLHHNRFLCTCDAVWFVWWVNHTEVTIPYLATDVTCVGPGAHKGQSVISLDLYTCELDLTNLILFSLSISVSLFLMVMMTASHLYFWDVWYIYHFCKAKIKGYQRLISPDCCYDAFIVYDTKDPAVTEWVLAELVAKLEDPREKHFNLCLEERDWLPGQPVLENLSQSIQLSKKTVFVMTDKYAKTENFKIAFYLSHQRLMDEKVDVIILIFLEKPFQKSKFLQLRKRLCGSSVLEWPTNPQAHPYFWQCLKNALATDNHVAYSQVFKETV
Assay: Antagonist screen, hTLR7-NFκB-293 cells, NF-κB-luciferase reporter, with EC50 of R848
Assay type: cell-based
Details: compound at 0.5, 5, 50 μg/ml; EC50 concentration of R848; 16 h; NF-κB-luciferase

| SMILES | hTLR7 (inhibitory effect, antagonist score) |
| --- | --- |
| COc1cc2nc(N3CCN(C(=O)C4COc5ccccc5O4)CC3)nc(N)c2cc1OC.CS(=O)(=O)O (stereo not shown) [compound 858, Doxazosin mesylate] | — (compounds for which there was no clear down regulation even at 50 μg/ml) |
| COc1cc2nc(N3CCN(C(=O)C4CCCO4)CC3)nc(N)c2cc1OC.Cl (stereo not shown) [compound 751, Terazosin hydrochloride] | — (compounds for which there was no clear down regulation even at 50 μg/ml) |
| CCN(CC)CCCC(C)Nc1nc(/C=C/c2ccc(Cl)cc2)nc2cc3ccccc3cc12 (stereo not shown) [compound 2000] | 13 (compounds for which there was clear down regulation at 0.5 μg/ml, 5 μg/ml, and 50 μg/ml) |
| CCN(CC)CCCNc1nc(-c2ccccc2)nc2ccccc12 [compound 2001] | 11 (compounds for which there was clear down regulation only at 50 μg/ml) |
| CN(C)C(=O)C(CCN1CCC(O)(c2ccc(Cl)cc2)CC1)(c1ccccc1)c1ccccc1 [compound 144, Loperamidehydrochloride] | 11 (compounds for which there was clear down regulation only at 50 μg/ml) |
| COc1cc2c(cc1O)C[C@H]1c3c(cc(O)c(OC)c3-2)CCN1C [compound 600, Boldine] | — (compounds for which there was no clear down regulation even at 50 μg/ml) |
| CN1CCc2cccc3c2[C@H]1Cc1ccc(O)c(O)c1-3.Cl [compound 101, Apomorphinehydrochloride (R, —)] | — (compounds for which there was no clear down regulation even at 50 μg/ml) |
| CN1CCc2cc3c(c4c2C1Cc1ccccc1-4)OCO3.Cl (stereo not shown) [compound 669, Remerine hydrochloride] | 11 (compounds for which there was clear down regulation only at 50 μg/ml) |
| CC(C)(C)c1ccc(C(O)CCCN2CCC(C(O)(c3ccccc3)c3ccccc3)CC2)cc1 (stereo not shown) [compound 138, Terfenadine] | 11 (compounds for which there was clear down regulation only at 50 μg/ml) |

Same assay, conditions: hTLR7-NFκB-293 cells, with EC50 of R848; compound at 0.5, 5 and 50 μg/ml

| SMILES | hTLR7 (inhibitory effect) |
| --- | --- |
| O=C(CN1CCCC1)Nc1c2c(nc3ccccc13)N(c1ccccc1)CC2 [compound 1244] | 11 (compounds for which there was clear down regulation only at 50 μg/ml) |
| O=c1c2c(nc(NCCO)n1-c1ccccc1)-c1ccccc1CC21CCCC1 [compound 891] | 11 (compounds for which there was clear down regulation only at 50 μg/ml) |
| CCCCCCCCCCCC(=O)Nc1c2c(nc3ccccc13)N(C)CC2 [compound 1334] | — (compounds for which there was no clear down regulation even at 50 μg/ml) |
| CN1CCc2c1nc1ccccc1c2NC(=O)CN1CCCCCC1 [compound 1003] | 11 (compounds for which there was clear down regulation only at 50 μg/ml) |
| Nc1c2c(nc3ccccc13)N(Cc1ccccc1)CC2 [compound 1217, 1-Benzyl-2,3-dihydro-1H-pyrrolo[2,3-b]quinolin-4-ylamine] | 13 (compounds for which there was clear down regulation at 0.5 μg/ml, 5 μg/ml, and 50 μg/ml) |
| CN1CCc2c1nc1ccc(Br)cc1c2N [compound 1142, 6-Bromo-1-methyl-2,3-dihydro-1H-pyrrolo[2,3-b]quinolin-4-ylamine] | 11 (compounds for which there was clear down regulation only at 50 μg/ml) |
| Cc1ccc(-n2c(NCCO)nc3c(c2=O)C2(CCCCC2)Cc2ccccc2-3)cc1 [compound 1137] | 12 (compounds for which there was clear down regulation at 5 μg/ml and 50 μg/ml) |
| COc1cc2cc3c4cc(OC)c(OC)cc4cc[n+]3c(C)c2cc1OC [compound 431, Coralyne chloridehydrate] | — (compounds for which there was no clear down regulation even at 50 μg/ml) |
| CN1CCCCc2c1nc1ccccc1c2N [compound 1185, 1-Methyl-2,3,4,5-tetrahydro-1H-azepino[2,3-b]quinolin-6-ylamine] | — (compounds for which there was no clear down regulation even at 50 μg/ml) |
| Cc1ccc2nc3c(c(N)c2c1)CCN3C [compound 1091, 1,6-Dimethyl-2,3-dihydro-1H-pyrrolo[2,3-b]quinolin-4-ylamine] | 11 (compounds for which there was clear down regulation only at 50 μg/ml) |
| NNc1nc2c(c(=O)n1C1CCCC1)C1(CCCC1)Cc1ccccc1-2 [compound 1248] | 11 (compounds for which there was clear down regulation only at 50 μg/ml) |
| Cn1c(NN)nc2c(c1=O)C1(CCCC1)Cc1ccccc1-2 [compound 1213] | 11 (compounds for which there was clear down regulation only at 50 μg/ml) |
| O=c1[nH]c(NCCO)nc2c1C1(CCCC1)Cc1ccccc1-2 [compound 1322] | 11 (compounds for which there was clear down regulation only at 50 μg/ml) |
| CN1CCc2c1nc1ccccc1c2NC(=O)CN1CCN(c2ccccc2)CC1 [compound 1212] | 11 (compounds for which there was clear down regulation only at 50 μg/ml) |
| O=c1c2c(nc(NCCO)n1Cc1ccccc1)-c1ccccc1CC21CCCC1 [compound 926] | 11 (compounds for which there was clear down regulation only at 50 μg/ml) |
| NNc1nc2c(c(=O)n1-c1ccccc1)C1(CCCC1)Cc1ccccc1-2 [compound 1320] | — (compounds for which there was no clear down regulation even at 50 μg/ml) |
| O=C1c2ccc(S(=O)(=O)c3ccc4c(c3)C(=O)N(c3ccccn3)C4=O)cc2C(=O)N1c1ccccn1 [compound 1163] | 11 (compounds for which there was clear down regulation only at 50 μg/ml) |
| O=C1c2ccc(Oc3ccc(S(=O)(=O)c4ccc(Oc5ccc6c(c5)C(=O)N(c5ccccn5)C6=O)cc4)cc3)cc2C(=O)N1c1ccccn1 [compound 1367] | 11 (compounds for which there was clear down regulation only at 50 μg/ml) |
| COc1ccc2cc3[n+](cc2c1OC)CCc1cc2c(cc1-3)OCO2.[Cl-] [compound 586, Berberine chloride] | — (compounds for which there was no clear down regulation even at 50 μg/ml) |
| COc1ccc(Cc2nccc3cc(OC)c(OC)cc23)cc1OC.Cl [compound 583, Papaverinehydrochloride] | 11 (compounds for which there was clear down regulation only at 50 μg/ml) |
| CCCCCCN(CCCCCC)CC(=O)Nc1c2c(nc3ccccc13)N(C)CC2 [compound 1224] | 12 (compounds for which there was clear down regulation at 5 μg/ml and 50 μg/ml) |
| CN(C)CCN(Cc1ccc(Cl)cc1)c1ccccn1.Cl [compound 807, Chloro-pyraminehydrochloride] | — (compounds for which there was no clear down regulation even at 50 μg/ml) |
| CCOc1ccc(Cc2nccc3cc(OCC)c(OCC)cc23)cc1OCC.Cl [compound 830, Ethaverinehydrochloride] | 11 (compounds for which there was clear down regulation only at 50 μg/ml) |
| CN1CCc2c1nc1ccccc1c2N [compound 990, 1-Methyl-2,3-dihydro-1H-pyrrolo[2,3-b]quinolin-4-ylamine] | — (compounds for which there was no clear down regulation even at 50 μg/ml) |
| CC[N+](C)(CC)CCC[n+]1c(-c2ccccc2)c2cc(N)ccc2c2ccc(N)cc21.[I-].[I-] [compound 792, Propidium iodide] | — (compounds for which there was no clear down regulation even at 50 μg/ml) |
